Results on eleven compounds are retold here after ChEMBL document CHEMBL1201862, “PubChem BioAssay data set” (2004).

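Results reflect a 48-hour exposure of cells in 96-well plates to compound at five concentrations. The concentration for 50% growth inhibition is given as GI50.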 Activity calls are given as the source filed them. No stated cut-off is given here; in the data, active = GI50 up to about 1.1 µM and inactive = higher. Some results are limits rather than exact numbers.

One may read the GI50 as the concentration that inhibits growth by half.

Test systems include 786-0; A498; A549; CAKI-1; COLO 205; HCT-15; HOP-92; Hs-578T; KM12; LOX IMVI; MCF7; MDA-MB-231; Malme-3M; OVCAR-3; SF-295; SK-MEL-2; SNB-75; SR; UACC-62; RPMI-8226.
Common to all, as to experiment: DTP human tumour cell line panel, 48 h

As to `COc1cc2nc(-c3cccs3)nc(N3C(c4cc(OC)c(OC)c(OC)c4)=NNC(=O)c4ccccc43)c2cc1OC`, the GI50 in the test on 786-0 is 35.6 µM (inactive); with A498, > 100 µM (inactive); in the test with A549 it was 31.1 µM (inactive); with CAKI-1, 52.8 µM (inactive); in the test with COLO 205, > 100 µM (inactive); in the test with HCT-15, 13.5 µM. The GI50 with HOP-92 was 78.5 µM (inactive); in the test on Hs-578T, 38.9 µM (inactive); in the test with KM12, 18.5 µM (inactive); in the test on LOX IMVI it was 15.8 µM (inactive); in the test with MCF7 it was 46.3 µM (inactive); in the test with MDA-MB-231, 16.7 µM (inactive). Also, the GI50 was 18.7 µM (inactive) with Malme-3M; 6.43 µM (inactive) in the test with OVCAR-3; 17.9 µM (inactive) in the test with SF-295; 76 µM (inactive) in the test on SK-MEL-2; 25.7 µM (inactive) in the test on SNB-75; 6.93 µM (inactive) in the test on SR. The GI50 with UACC-62 was 17.4 µM (inactive).

Turning to `CC(C)OP(=O)(OC(C)C)C(C(C)C)N(C)/C(N)=N\C1=NC(C(F)(F)F)(C(F)(F)F)N=C(C(C(F)(F)F)C(F)(F)F)O1` (stereo not given), the GI50 in the test with 786-0 is 3.7 µM (inactive); with A498 it was 5.2 µM (inactive); in the test on A549 it was 2.88 µM (inactive); with CAKI-1, 3.12 µM (inactive); with COLO 205, 1.8 µM (inactive); with HCT-15 it was 3.75 µM. For the same compound, the GI50 in the test on Hs-578T was 4.99 µM (inactive); with KM12 it was 3.4 µM (inactive); in the test with LOX IMVI, 1.79 µM (inactive); in the test with MCF7, 3.79 µM (inactive); in the test on MDA-MB-231, 1.99 µM (inactive); with Malme-3M, 4.51 µM (inactive). The GI50 was 3.27 µM (inactive) with OVCAR-3; 1.97 µM (inactive) with RPMI-8226; 3.66 µM (inactive) in the test on SF-295; 9.44 µM (inactive) in the test on SK-MEL-2; 2.42 µM (inactive) in the test on SNB-75; 1.9 µM (inactive) with SR. Further, the GI50 in the test on UACC-62 is 2.01 µM (inactive).

In the case of `Nc1ccc2c(c1)nc1n2C(c2c(F)cccc2F)SC1` (stereo not given), the GI50 was > 100 µM (inactive) in the test on 786-0; > 100 µM (inactive) in the test with A498; > 100 µM (inactive) in the test with A549; 53.7 µM (inactive) with CAKI-1; > 100 µM (inactive) in the test with COLO 205; greater than 100 µM with HCT-15. Moreover, the GI50 in the test on Hs-578T, with KM12, with LOX IMVI, with MCF7, in the test on MDA-MB-231 and in the test on Malme-3M was > 100 µM (inactive) in each case. In addition, the GI50 with OVCAR-3, with RPMI-8226, in the test on SF-295, with SK-MEL-2, with SNB-75 and with SR was > 100 µM (inactive) throughout. The GI50 in the test with UACC-62 was > 100 µM (inactive).

Consider `Cc1ccc2nc(C(C)C)c(=O)[nH]c2c1`, for which the GI50 was 52.7 µM (inactive) in the test on 786-0; > 100 µM (inactive) in the test on A498; 57 µM (inactive) in the test with A549; 43.4 µM (inactive) in the test with CAKI-1; > 100 µM (inactive) in the test with COLO 205; greater than 100 µM in the test with HCT-15. Also, the GI50 in the test on HOP-92 is > 100 µM (inactive); in the test on Hs-578T, 42.3 µM (inactive); in the test on KM12 it was 31.8 µM (inactive); in the test with MCF7, > 100 µM (inactive); with MDA-MB-231 it was > 100 µM (inactive); with Malme-3M, > 100 µM (inactive). Besides, the GI50 in the test on OVCAR-3 is 18.8 µM (inactive); in the test on RPMI-8226, > 100 µM (inactive); in the test on SF-295, 71 µM (inactive); in the test on SK-MEL-2 it was 15 µM (inactive); in the test on SNB-75, 42.4 µM (inactive); in the test on SR, > 100 µM (inactive). In the test on UACC-62, the GI50 is > 100 µM (inactive).

For the compound `Nc1ncnc2oc(-c3cccs3)nc12`, the GI50 with 786-0 was > 100 µM (inactive); in the test on A498 it was > 100 µM (inactive); with A549 it was > 100 µM (inactive); in the test on COLO 205 it was > 100 µM (inactive); in the test on HCT-15 it was greater than 100 µM; in the test on HOP-92, > 100 µM (inactive). The GI50 in the test on Hs-578T, in the test with KM12, in the test on LOX IMVI, in the test with MCF7, in the test on MDA-MB-231 and in the test on OVCAR-3 was > 100 µM (inactive) each time. In addition, the GI50 was > 100 µM (inactive) in the test with RPMI-8226; > 100 µM (inactive) with SF-295; > 100 µM (inactive) with SK-MEL-2; > 100 µM (inactive) with SR; 66.1 µM (inactive) with UACC-62.

Take `Cc1cc(C)n(CN(Cn2nc(C)cc2C)c2ccccc2)n1`: the GI50 in the test with 786-0 is 21.4 µM (inactive); in the test with A498 it was > 100 µM (inactive); in the test on A549 it was 26.8 µM (inactive); with CAKI-1 it was 20.4 µM (inactive); in the test on COLO 205, 14.3 µM (inactive); in the test on HCT-15, 19.6 µM. Also, the GI50 in the test with HOP-92 was 33.5 µM (inactive); in the test on Hs-578T it was 45 µM (inactive); in the test on KM12, 16 µM (inactive); in the test with LOX IMVI, 1.5 µM (inactive); with MCF7, 23.1 µM (inactive); with MDA-MB-231, 37.6 µM (inactive). The GI50 was 22.8 µM (inactive) in the test with Malme-3M; 30.5 µM (inactive) in the test with OVCAR-3; 18.4 µM (inactive) in the test on RPMI-8226; 57.9 µM (inactive) in the test on SF-295; 19 µM (inactive) in the test with SK-MEL-2; 0.217 µM (active) with SR. In the test with UACC-62, the GI50 was 10.6 µM (inactive).

Consider `COc1cccc2c1C(=O)c1c(O)c3c(c(O)c1C2=O)C[C@@](O)(C(=O)CO)C[C@@H]3OC1CC(N2CCOCC2C#N)C(O)C(C)O1` (stereo not given in full), for which the 50% growth inhibitory concentration (GI50) with 786-0 was 0.001 µM (active); in the test with A498, 2.58e-05 µM (active); in the test on A549, 4.26e-05 µM (active); in the test on CAKI-1, 3.53e-05 µM (active); in the test with COLO 205 it was 0.000136 µM (active); with HCT-15, 4.51e-05 µM. The 50% growth inhibitory concentration (GI50) was 9.53e-05 µM (active) with HOP-92; 5.73e-05 µM (active) in the test on Hs-578T; 2.55e-05 µM (active) in the test with KM12; 0.0025 µM (active) with LOX IMVI; 0.0025 µM (active) with MCF7; 0.00011 µM (active) in the test with MDA-MB-231. Moreover, the GI50 is 0.0002 µM (active) in the test with Malme-3M; 2.27e-05 µM (active) in the test with OVCAR-3; 3.01e-05 µM (active) in the test on RPMI-8226; 1.82e-05 µM (active) in the test on SF-295; 1.37e-05 µM (active) in the test with SNB-75; 1.27e-05 µM (active) in the test with SR. In addition, in the test with UACC-62, the GI50 is 9.98e-06 µM (active).

As to `CC(C)c1cc(C(C)C)c(B(c2ccccc2)c2ccccc2)c(C(C)C)c1Br`, the GI50 in the test on 786-0 is > 100 µM (inactive); in the test with A498, > 100 µM (inactive); in the test with A549 it was > 100 µM (inactive); in the test on CAKI-1, > 100 µM (inactive); in the test on COLO 205 it was > 100 µM (inactive); in the test with HCT-15 it was greater than 100 µM. In addition, the GI50 with HOP-92, with Hs-578T, with KM12, with LOX IMVI, in the test with MCF7 and in the test on MDA-MB-231 was > 100 µM (inactive) throughout. For the same compound, the GI50 in the test on Malme-3M, in the test with OVCAR-3, in the test on SF-295, in the test with SK-MEL-2, in the test on SR and in the test on UACC-62 was > 100 µM (inactive) throughout.

For the compound `O=C1C2CC=CCC2C(=O)N1n1c(Cc2ccccc2)n[nH]c1=O` (stereo not given), the GI50 with 786-0 was > 100 µM (inactive); in the test on A498 it was > 100 µM (inactive); in the test on A549 it was > 100 µM (inactive); in the test on CAKI-1, > 100 µM (inactive); in the test with COLO 205, > 100 µM (inactive); in the test on HCT-15, greater than 100 µM. For the same compound, the GI50 in the test on HOP-92, in the test on Hs-578T, in the test with KM12, with LOX IMVI, in the test on MCF7 and with MDA-MB-231 was > 100 µM (inactive) in each case. Further, the GI50 with Malme-3M, in the test on OVCAR-3, with RPMI-8226, with SF-295, in the test with SK-MEL-2 and in the test on SR was > 100 µM (inactive) throughout. The GI50 in the test on UACC-62 was > 100 µM (inactive).

As to `O=C(/C=C/c1ccsc1)c1ccco1`, the GI50 was 12.1 µM (inactive) in the test with 786-0; 5.41 µM (inactive) in the test with A498; 6.85 µM (inactive) in the test on CAKI-1; 17.6 µM (inactive) in the test on COLO 205; 7.24 µM with HCT-15; 14.9 µM (inactive) in the test with HOP-92. Also, the GI50 is 9.4 µM (inactive) in the test on Hs-578T; 4.8 µM (inactive) with KM12; 3.1 µM (inactive) with LOX IMVI; 2.21 µM (inactive) in the test on MCF7; 12.7 µM (inactive) in the test with MDA-MB-231; 14 µM (inactive) with OVCAR-3. Also, the GI50 was 3.52 µM (inactive) in the test on RPMI-8226; 14.2 µM (inactive) in the test on SF-295; 14.1 µM (inactive) with SK-MEL-2; 12.8 µM (inactive) with SNB-75; 2.28 µM (inactive) with SR; 14.6 µM (inactive) in the test with UACC-62.

With `C=C[C@H]1CN2CCc3c([nH]c4cc(O)ccc34)[C@@H]2C[C@@H]1C[C@H]1c2[nH]c3ccccc3c2CCN1C`, the GI50 in the test on 786-0 was 1.84 µM (inactive); with A498, 2.16 µM (inactive); in the test with A549, 5.53 µM (inactive); in the test on CAKI-1, 6.04 µM (inactive); with COLO 205 it was 1.77 µM (inactive); in the test on HCT-15, 2.54 µM. The GI50 in the test on HOP-92 was 3.39 µM (inactive); in the test on Hs-578T it was 3.53 µM (inactive); in the test with KM12, 3.66 µM (inactive); in the test with LOX IMVI, 4.41 µM (inactive); in the test with MCF7 it was 2.31 µM (inactive); in the test with MDA-MB-231, 6.05 µM (inactive). Besides, the GI50 is 13.8 µM (inactive) in the test with Malme-3M; 4.39 µM (inactive) in the test on OVCAR-3; 4.53 µM (inactive) in the test with SF-295; 3.21 µM (inactive) in the test with SK-MEL-2; 2.11 µM (inactive) with SNB-75; 2.67 µM (inactive) in the test on SR. Moreover, the GI50 in the test on UACC-62 is 4.19 µM (inactive).
